Source: patent US10631541B1, “Nitrogen-15 isotope as a plant growth regulator” (Floratine Products Group, Inc, priority 2016, dated 2020)

Key:
Annual Rye = assay: Laboratory trial: Annual Rye seeds in trays of potting soil, sprayed every other day; assay type: in vivo; details: averages of 74 plants per tray after 1 week; for Root Length, percent inc (versus sugar solution): increase over sugar solution (2.9 cm); for Blade Length, percent increase (versus sugar solution): increase over sugar solution (6.3 cm); for Blade Length / Root Length: ingredient added to standard sugar solution (Ni 0.003% w/w, Co 0.003% w/w, nitrogen-15 0.00001% w/w), spray 12 ml per square meter every other day
Description: Some characteristics of the plant growth regulating composition according to the invention are illustrated by the following examples. The laboratory trial involved planting Annual Rye seeds in trays of commercially available potting soil. The seed density on the trays was 358 grams per square meter. The volume of each spray was 12 ml per square meter after the grass emerged. The spray frequency was every other day. The following ingredients were added at these concentrations to a standard sugar solution: Ni 0.003% w/w (Nickel), Co 0.003% w/w (cobalt) and nitrogen-15 0.00001% w/w.

Common Bermuda = assay: Trial on turf, sprayed once with nitrogen-15 spray solutions; assay type: in vivo
Description: A trial on turf was conducted on Common Bermuda. The turf was sprayed once with spray solutions that contained four concentrations of nitrogen-15 ammonium sulfate. The concentrations ranged from: 0.001% though 0.004% w/w. The nitrogen-15 was mixed with a sugar solution as in the laboratory trial.

Compound | Root Length, percent inc (versus sugar solution) (Annual Rye) [%] | Blade Length, percent increase (versus sugar solution) (Annual Rye) [%] | Blade Length (Annual Rye) [cm] | Root Length (Annual Rye) [cm] | visual color of turf plot (Common Bermuda; plot sprayed once with 0.004% w/w in sugar solution, four concentrations 0.001% through 0.004% w/w compared) | Percent increase in leaf length (Common Bermuda; turf sprayed once, 0.001% through 0.004% w/w in sugar solution)
[Co] [Co, cobalt] | 41.40 | 11.10 | 7.0 | 4.1 |  | 
[Ni] [Ni, Nickel] | 41.40 | 15.90 | 7.3 | 4.1 |  | 
O=S(=O)(O)O.[15NH3].[15NH3] [nitrogen-15 ammonium sulfate] |  |  |  |  | darkest green | the same as the laboratory trial
Nitrogen-15 | 20.70 | 25.40 | 7.9 | 3.5 |  | 
